According to US5514773A, “Depsipeptide derivatives, production thereof and use thereof” (Fujisawa Pharmaceutical Co., Ltd., priority 1992, dated 1996):

Tests used:
Assay type in all cases: in vivo
[1] = system: Nippostrongylus brasilienses; assay: Test 1: reduction of Nippostrongylus brasilienses in infected rats, oral administration; settings: Wistar rats, oral on 7th, 8th and 9th day after infection, parasites in small intestines counted on 11th day
Method: (§1) The effect of parasiticides was examined with the rats which was infected by nematodes which are parasitic on rats, Nippostrongylus brasilienses.
(§2) Wistar strain rats (female 6 weeks old, 120-130 g weight) were […] by infecting them and giving them subcutaneous injections of 3000 infective larvae per rat.
(§3) Test compound of 50 mg was dissolved in 0.25 ml dimethylsulfoxide, 0.5% methylcellulose solution was added, and liquid volume was adjusted to be prescribed volume of 100, 10, 5, 2.5, 1.25, 1.0, 0.63, 0.32 mg/kg to utilize. After they were infected, on each 7th, 8th, and 9th day, the test compound was administered orally with above concentration. On the 11th day, the rat was dissected and the numbers of parasites in the small intestines were measured.
The given measurement was based to calculate the reduction rate from the percentage of the numbers of the parasites of unadministered rats (control). The result of it is shown in the […]

[2] = system: Nippostrongylus brasilienses; assay: Test 2: reduction of Nippostrongylus brasilienses in infected rats, subcutaneous administration; settings: Wistar rats, otherwise as Test 1
Method: as §1, §2, §3
The given measurement was based to calculate the reduction rate from the percentage of the numbers of the parasites of unadministered rats (control). The result of it is shown in the
The reduction rate was calculated in a similar manner as Test 1 except when the test compound was subcutaneously administered to the rats instead of oral administration as in Test 1.

[3] = system: Strongyloides venezuelensis; assay: Test 3: Strongyloides venezuelensis in infected Mongolian gerbils, eggs in feces and worms recovered; settings: oral once 20 mg/kg, group mean
Source text: For 1 rat, the 5000 infective larvae of Strongyloides venezuelensis were infected percutaneously to one group (2 rats) of 8 weeks old Mongolian gerbils. On the 10th day after they were infected, the suspended test compound was orally administered once with the amount of established administration. The effect was judged according to the amount of the eggs in the feces or the numbers of worms in the intestinal tract. The measurement of the numbers of the eggs were taken from O ring method, and the numbers of the eggs (EPG) in 1 g of feces were counted on the day before, on the day, and on the 1st, 2nd, 3rd, and 4th day after the administration. The numbers of the parasites were measured by dissecting Mongolian gerbils the 4th day after the administration (on the 14th day after infection). The method of measurement was followed by releasing the parasites, which live in the small intestines, into saline solution over night, and the released parasites were set to be as numbers of worms recovered.

CC(C)C[C@H]1C(=O)O[C@H](Cc2ccccc2)C(=O)N(C)[C@@H](CC(C)C)C(=O)O[C@H](C)C(=O)N(C)[C@@H](CC(C)C)C(=O)O[C@H](Cc2ccccc2)C(=O)N(C)[C@@H](CC(C)C)C(=O)O[C@H](C)C(=O)N1C [PF1022]
Minimum Amount of Administration indicated by more than 95% of Reduction Rate [1]: 10 mg/kg
Minimum Amount of Administration indicated by more than 95% of Reduction Rate [2]: > 100 mg/kg
Change in Numbers of Parasites' Number of Eggs in Feces (EPG/100) ([3]; day 0 (starting day of administration)): 1615 EPG/100
Change in Numbers of Parasites' Number of Eggs in Feces (EPG/100) ([3]; day 1 after administration): 581 EPG/100
Change in Numbers of Parasites' Number of Eggs in Feces (EPG/100) ([3]; day 2 after administration): 1563 EPG/100
Change in Numbers of Parasites' Number of Eggs in Feces (EPG/100) ([3]; day 3 after administration): 935 EPG/100
Change in Numbers of Parasites' Number of Eggs in Feces (EPG/100) ([3]; day 4 after administration): 1005 EPG/100
Change in Numbers of Parasites' Number of Eggs in Feces (EPG/100) ([3]; day -2 (before administration)): 332 EPG/100
Numbers of the Worms recovered ([3]; dissected 4th day after administration): 3088
